Measurements published in US5270334A, “4-methoxy-5-methyl-pyran-3-ol natural products and derivatives thereof” (E. R. Squibb & Sons, Inc., priority 1992, dated 1993).
Converted amounts (≈) assume the structure as drawn.

Legend:
[1] = acute toxicity, intraperitoneal administration to mice; settings: mouse, in vivo, ip, random bred Swiss Webster Female mice
[2] = tested on: Candida species; assay: antifungal activity of lanomycin; format: cell-based; settings: in words, Table 4
Method: *Minimal inhibitory concentrations were determined by agar dilution assay

[3] = tested on: Candida tropicalis; assay: Anticandidal activity of lanomycin, agar dilution method (Table 5); format: cell-based; settings: 10^4 cfu
Method: (§1) MICs were determined by the agar dilution method using a medium composed of tryptone (5 g), malt extract (3 g), glucose (10 g) and yeast extract (3 g) in 1 L distiled water; 10^4 cfu of the test organism was applied to the agar.

[4] = tested on: Candida pseudotropicalis; assay: as above; format: cell-based; settings: Kluyveromyces marxianus, SC11241; Candida pseudotropicalis SC 11241; 10^4 cfu
Method: as §1

[5] = tested on: Candida parakrusei; assay: as above; format: cell-based; settings: for MIC: 10^4 cfu
Method: as §1

[6] = tested on: Candida albicans; assay: as above; format: cell-based; settings: for MIC: 10^4 cfu
Method: as §1

[7] = tested on: Candida krusei; assay: as above; format: cell-based; settings: for MIC: Pichia kudriavzevii, 10^4 cfu
Method: as §1

[8] = tested on: Candida guillermondii; assay: as above; format: cell-based; settings: for MIC: 10^4 cfu
Method: as §1

[9] = tested on: Candida glabrata; assay: as above; format: cell-based; settings: for MIC: Nakaseomyces glabratus, 10^4 cfu
Method: as §1

[10] = tested on: Candida stellatoidea; assay: as above; format: cell-based; settings: Candida albicans, SC2211; Candida stellatoidea SC 2211; 10^4 cfu
Method: as §1

[11] = biological target: T1, lanosterol demethylase of Candida albicans (Candida albicans, UniProt P10613); assay: inhibition of lanosterol demethylase, radiolabeled metabolic assay (14C-acetate, lanosterol accumulation); format: cell-based; settings: Candida albicans SC5314, 14C-acetate, 30°
T1 construct: 14C-acetate sterol labelling, TLC
Method: The inhibition of lanosterol demethylase was determined by two methods: the spectrophotometric carbon monoxide binding assay of Omura and Sato (J. Biol. Chem. 239:2370-2378, 1964) and by a radiolabeled metabolic assay.
The ability of scopularin and its alcohol to inhibit the lanosterol demethylase of Candida albicans can also be visualized by a metabolic assay. Candida albicans, SC5314, was grown overnight at 30° with shaking in the same medium as that used above. Cells were harvested by centrifugation and resuspended in water to give an optical density of 0.3 at 660 nm. 750 μl of this cell suspension, 300 μl of a medium containing 0.35 g Difco yeast nitrogen base without amino acids, 1 g glucose and distilled water to 10 ml, 100 μl of test material and distilled water were combined to give a final volume of 1.425 ml. This was incubated for 15 minutes at 30° C. with shaking, then 3 μCi ^14 C-acetate was added and continued to incubate for 1 hour. Cells were harvested by centrifugation and extracted with 2×0.5 ml methanol; centrifuged, decanted supernate and repeated the extraction with […] methanol-benzene (1:1). Centrifuged, decanted; combined supernates, dried and resuspended in 100 μl chloroform-methanol (1:1). The aliquots were spotted onto silica gel 60 (Merck) plates and developed chromatographically in a solvent containing dichloromethane-acetone (60:1). […]

[12] = tested on: Candida pseudotropicalis; assay: MIC of scopularin, agar dilution assay (K-10 agar); format: cell-based; settings: Kluyveromyces marxianus, SC11, 18 h; Candida pseudotropicalis SC 11,241
Method: (§2) The following methodology was used to determine the miniumum inhibitory concentration (hereinafter referred to as MIC) of scopularin.
(§3) The aerobic test organisms were grown in approximately 15-20ml of Antibiotic Assay Broth (Difco) by inoculating (in tubes) the broth with a loopful of the organism from a BHI (Difco) agar slant. The inoculated tubes were incubated at 37° C. for 18 to 24 hours. These cultures are assumed to contain 10^7 colony forming units (CFU) per ml and the cultures were diluted 1:100 to give a final inoculum level of 10^5 CFU; dilutions were made with Yeast Beef Broth (Difco).
(§4) Scopularin was dissolved in an appropriate diluent at a concentration of 1,000 μg/ml. Two-fold dilutions were made in Yeast Beef Broth (Difco), resulting in a range from 1000 µg/ml to 0.5 μg/ml. 1.5 ml of each dilution was placed into individual petri dishes to which 13.5ml of K-10 agar was added. The composition of K-10 agar is:
(§5) The final drug concentration in the agar ranged from 100 μg/ml to 0.05 μg/ml. Organism growth control plates containing agar only were prepared and inoculated before and after the test plates. The organisms were applied to the agar surface of each plate with a Denly Multipoint Inoculator (which delivers approximately 0.001 ml of each organism) resulting in a final inoculum of 10^4 CFU on the agar surface.
(§6) The plates were incubated at 37° C. for 18 hours and the MICs determined. The MIC is the lowest concentration of compound inhibiting growth of the organism.

[13] = tested on: Candida albicans; assay: MIC of scopularin, agar dilution assay (K-10 agar); format: cell-based
Method: as §2, §3, §4, §5, §6

[14] = tested on: Candida glabrata; assay: MIC of scopularin, agar dilution assay (K-10 agar); format: cell-based; settings: Nakaseomyces glabratus, SC11, 18 h; Candida glabrata SC 11,267
Method: as §2, §3, §4, §5, §6

[15] = tested on: Trichophyton rubrum; assay: MIC of scopularin, agar dilution assay (K-10 agar); format: cell-based; settings: SC9199, 18 h; Trichophyton rubrum SC 9199
Method: as §2, §3, §4, §5, §6

T1 sequence (P10613 whole entry): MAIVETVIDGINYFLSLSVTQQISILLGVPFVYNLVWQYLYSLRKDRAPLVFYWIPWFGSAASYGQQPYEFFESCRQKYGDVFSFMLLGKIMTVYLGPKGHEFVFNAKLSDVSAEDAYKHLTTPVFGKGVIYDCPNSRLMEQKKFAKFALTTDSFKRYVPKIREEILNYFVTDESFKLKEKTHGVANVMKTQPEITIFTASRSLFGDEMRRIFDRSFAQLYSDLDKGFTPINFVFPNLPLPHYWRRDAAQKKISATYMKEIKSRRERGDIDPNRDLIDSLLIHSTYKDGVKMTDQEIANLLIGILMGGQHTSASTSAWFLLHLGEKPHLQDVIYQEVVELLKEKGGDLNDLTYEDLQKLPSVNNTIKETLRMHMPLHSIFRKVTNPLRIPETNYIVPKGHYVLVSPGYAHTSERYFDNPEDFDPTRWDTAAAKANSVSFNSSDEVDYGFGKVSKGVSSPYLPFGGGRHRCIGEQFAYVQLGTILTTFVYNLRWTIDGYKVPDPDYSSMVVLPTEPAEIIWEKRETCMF

Question: Which LD50 [1] does the source give for C/C=C/C=C/C=C(\C)[C@H]1OC[C@@H](C)[C@@H](OC)[C@@H]1OC(=O)CN (relative stereo) [Lanomycin] here?
Answer: 385 mg/kg

Question: What about the “activity against some Candida species” value [2] of the same molecule?
Answer: showed activity

Question: What about the MIC ([3]; SC2963, Candida tropicalis SC 2963) of the same molecule?
Answer: 25 µg/mL (≈ 80.8 µM)

Question: What about the MIC ([3]; SC8159, Candida tropicalis SC 8159) of the same molecule?
Answer: > 100 µg/mL

Question: And the MIC ([3]; SC9861, Candida tropicalis SC 9861)?
Answer: 100 µg/mL (≈ 323 µM)

Question: What about the MIC ([3]; SC10597, Candida tropicalis SC 10597) of the same molecule?
Answer: 100 µg/mL (≈ 323 µM)

Question: And the MIC [4]?
Answer: 50 µg/mL (≈ 162 µM)

Question: What about the MIC ([5]; SC2621, Candida parakrusei SC 2621) of the same molecule?
Answer: 12.5 µg/mL (≈ 40.4 µM)

Question: And the MIC ([5]; SC2966, Candida parakrusei SC 2966)?
Answer: 25 µg/mL (≈ 80.8 µM)

Question: And the “activity against certain strains of C. parakrusei” value ([5]; in words, Table 5)?
Answer: good activity

Question: What about the MIC ([6]; SC5314, Candida albicans SC 5314) of the same molecule?
Answer: > 100 µg/mL

Question: What about the MIC ([6]; SC9177, Candida albicans SC 9177) of the same molecule?
Answer: 100 µg/mL (≈ 323 µM)

Question: And the MIC ([6]; SC9721, Candida albicans SC 9721)?
Answer: 100 µg/mL (≈ 323 µM)

Question: What about the MIC ([6]; SC10102, Candida albicans SC 10102) of the same molecule?
Answer: > 100 µg/mL

Question: And the MIC ([6]; SC10580, Candida albicans SC 10580)?
Answer: > 100 µg/mL

Question: What about the MIC ([6]; SC10584, Candida albicans SC 10584) of the same molecule?
Answer: 50 µg/mL (≈ 162 µM)

Question: And the MIC ([6]; SC10585, Candida albicans SC 10585)?
Answer: 100 µg/mL (≈ 323 µM)

Question: And the MIC ([6]; SC11422, Candida albicans SC 11422)?
Answer: 100 µg/mL (≈ 323 µM)

Question: What about the MIC ([6]; SC12734, Candida albicans SC 12734) of the same molecule?
Answer: > 100 µg/mL

Question: And the MIC ([6]; SC14021, Candida albicans SC 14021)?
Answer: > 100 µg/mL

Question: What about the “activity against the C. albicans species tested” value ([6]; in words, Table 5) of the same molecule?
Answer: active

Question: And the MIC ([7]; SC2967, Candida krusei SC 2967)?
Answer: 6.3 µg/mL (≈ 20.4 µM)

Question: And the MIC ([7]; SC2968, Candida krusei SC 2968)?
Answer: 12.5 µg/mL (≈ 40.4 µM)

Question: And the MIC ([7]; SC2969, Candida krusei SC 2969)?
Answer: 25 µg/mL (≈ 80.8 µM)

Question: And the “activity against certain strains of C. krusei” value ([7]; in words, Table 5)?
Answer: good activity

Question: And the MIC ([8]; SC2210, Candida guillermondii SC 2210)?
Answer: 50 µg/mL (≈ 162 µM)

Question: And the MIC ([8]; SC2996, Candida guillermondii SC 2996)?
Answer: 1.6 µg/mL (≈ 5.17 µM)

Question: What about the “activity against certain strains of C. guillermondii” value ([8]; in words, Table 5) of the same molecule?
Answer: good activity

Question: What about the MIC ([9]; SC9342, Candida glabrata SC 9342) of the same molecule?
Answer: 0.8 µg/mL (≈ 2.59 µM)

Question: And the MIC ([9]; SC11267, Candida glabrata SC 11267)?
Answer: 25 µg/mL (≈ 80.8 µM)

Question: What about the “activity against certain strains of C. glabrata” value ([9]; in words, Table 5) of the same molecule?
Answer: good activity

Question: What about the MIC [10] of the same molecule?
Answer: 50 µg/mL (≈ 162 µM)

Question: Which “concentration causing accumulation of lanosterol, consistent with inhibition of lanosterol demethylase” value [11] does the source give for CCC/C=C/C=C/C=C(\C)[C@H]1OC[C@@H](C)[C@@H](OC)[C@@H]1OC(=O)CN (relative stereo) [Scopularin, (2α, 3β, 4α, 5α)-Tetrahydro-4-methoxy-5-methyl-2-(1-methyl-1,3,5-nonatrienyl)-2H-pyran-3-ol, aminoacetate ester] here?
Answer: 6.7×10^-7

Question: What about the MIC [12] of the same molecule?
Answer: 25 µg/mL

Question: And the MIC ([13]; SC10, 18 h, Candida albicans SC 10,102)?
Answer: 100 µg/mL

Question: And the MIC ([13]; SC10, 18 h, Candida albicans SC 10,580)?
Answer: 50 µg/mL

Question: And the MIC ([13]; SC10, 18 h, Candida albicans SC 10,584)?
Answer: 25 µg/mL

Question: And the MIC ([13]; SC10, 18 h, Candida albicans SC 10,585)?
Answer: 50 µg/mL

Question: And the MIC ([13]; SC11, 18 h, Candida albicans SC 11,422)?
Answer: 50 µg/mL

Question: What about the MIC ([13]; SC12, 18 h, Candida albicans SC 12,734 (Bacilysin^R)) of the same molecule?
Answer: 100 µg/mL

Question: And the MIC ([13]; SC14, 18 h, Candida albicans SC 14,021 (Aculeacin^R))?
Answer: 50 µg/mL

Question: And the MIC ([13]; SC5314, 18 h, Candida albicans SC 5314)?
Answer: 50 µg/mL

Question: And the MIC ([13]; SC9177, 18 h, Candida albicans SC 9177)?
Answer: 50 µg/mL

Question: And the MIC ([13]; SC9721, 18 h, Candida albicans SC 9721)?
Answer: 50 µg/mL

Question: And the MIC [14]?
Answer: 25 µg/mL

Question: What about the MIC [15] of the same molecule?
Answer: 0.4 µg/mL
